Tests used:
[1] = test system: NF-κB p50 and p65; assay: NF-κB activity in monocytes (ELISA-based assay); type: cell-based, human; details: P5 100 ng/mL, 24 hours
Method: Monocytes were cultured for 24 hours in the presence of E. coli LPS (O111:B4, 1 μg/mL), anti-TREM-1 mAb (10 μg/mL) and/or P5 (100 ng/mL) as indicated and the levels of NFκB p50 and p65 were determined using an ELISA-based assay. Experiments were performed in triplicate and data are expressed as means of optical densities (SEM).
In order to activate monocytes through TREM-1, an anti-TREM-1 agonist monoclonal antibody (R&D Systems) was added as follows: flat-bottom plates were precoated with 10 μg/mL anti-TREM-1 per well. After thorough washing in phosphate buffered saline (PBS), the monocyte suspensions were added at a similar concentration as above. Some experiments were performed in the presence of protease inhibitors (PMSF and Protease Cocktail Inhibitor; Invitrogen). Cell-free supernatants were assayed for the production of TNF-α and IL-1β by ELISA according to the recommendations of the manufacturer (BD Biosciences, San Diego, USA). To address the effect of P5 on NF-κB activity in monocytes, an ELISA-based assay was performed (BD Mercury™ Transfactor Kit, BD Biosciences). […] Whole-cell extracts were then prepared and levels of NF-κB p50 and p65 were determined according to the recommendations of the manufacturer. All experiments were performed in triplicate and data are expressed as means (SEM). Identification and Quantitation of sTREM-1 Release

[2] = test system: human monocytes; assay: in vitro stimulation of monocytes: TNF-α, IL-1β and sTREM-1 release; type: cell-based; details: P5 or control peptide 10 to 100 ng/mL, rIL-10 500 U/mL
Method: For cell activation, primary monocytes were cultured in 24-well flat-bottom tissue culture plates in the presence of LPS (1 μg/mL). In some experiments this stimulus was provided in combination with P5 (10 to 100 ng/mL), control peptide (10 to 100 ng/mL) or rIL-10 (500 U/mL). To activate monocytes through TREM-1, an agonist anti-TREM-1 mAb (10 μg/mL) was added as indicated. Cell-free supernatants were analysed for production of TNF-α, IL-1β. and sTREM-1 by ELISA or immunodot. All experiments were performed in triplicate and data are expressed as means (SEM). • a: Media • b: P5 10 ng/mL • c: Anti-TREM-1 • d: LPS • e: LPS+Anti-TREM-1 • f: LPS+P5 10 ng/mL • g: LPS+P5 50 ng/mL • h: LPS+P5 100 ng/mL • i: LPS+IL10
Ten mL of peripheral blood samples were collected on EDTA-K from 5 healthy volunteer donors originating from laboratory staff. After dilution in RPMI (Life Technologies, Grand Island, N.Y.) v/v, blood was centrifuged for 30 min at room temperature over a Ficoll gradient (Amersham Pharmacia, Uppsala, Sweden) to isolate PBMC. The cells recovered above the gradient were washed and counted. In order to deplete the suspensions of lymphocytes, cells were then plated in 24-well flat-bottom tissue culture plates (Corning, Corning, N.Y.) at a concentration of 5×10^6/mL and allowed to adhere during 2 hours at 37° C. The resulting lymphocyte suspension was discarded and the adhering monocytic cells were maintained in a 5% CO2 incubator at 37° C. in complete medium (RPMI 1640, 0.1 mM sodium pyruvate, […], 50 μg/mL Streptomycin; Life Technologies) supplemented with 10% FCS (Invitrogen, Cergy, France).
For activation, monocytes were cultured in the presence of E. coli LPS (0111:B4, 1 μg/mL, Sigma-Aldrich, La Verpillière, France). Cell viability was assessed by trypan blue exclusion and by measuring lactate dehydrogenase release. In some experiments, this stimulus was given in combination with TNF-α (5 to 100 ng/mL, R&D Systems, Lille, France), IL-1β (5 to 100 ng/mL, R&D Systems), rIFN-γ (up to 100 U/mL, R&D Systems), rIL-10 (500 U/ml, R&D Systems) or up to 100 ng/mL of P5 or control peptide.
In order to activate monocytes through TREM-1, an anti-TREM-1 agonist monoclonal antibody (R&D Systems) was added as follows: flat-bottom plates were precoated with 10 μg/mL anti-TREM-1 per well. After thorough washing in phosphate buffered saline (PBS), the monocyte suspensions were added at a similar concentration as above. Some experiments were performed in the presence of protease inhibitors (PMSF and Protease Cocktail Inhibitor; Invitrogen). Cell-free supernatants were assayed for the production of TNF-α and IL-1β by ELISA according to the recommendations of the manufacturer (BD Biosciences, San Diego, USA). To address the effect of P5 on NF-κB activity in monocytes, an ELISA-based assay was performed (BD Mercury™ Transfactor Kit, BD Biosciences). Monocytes were cultured for 24 hours in the presence of E. coli LPS (O111:B4, 1 μg/mL), and/or an agonist anti-TREM-1 monoclonal antibody (10 μg/mL), and/or P5 (100 ng/mL). Whole-cell extracts were then prepared and levels of NF-κB p50 and p65 were determined according to the recommendations of the manufacturer. All experiments were performed in triplicate and data are expressed as means (SEM). Identification and Quantitation of sTREM-1 Release
Primary monocytes suspensions were cultured as described above. The cells were treated with E. coli LPS (0111:B4, 1 μg/mL) for 24 hours at 37° C. Cell-conditioned medium was submitted to Western-blotting using an anti-TREM-1 monoclonal antibody (R&D Systems) in order to confirm the presence of 27 kDa material recognized by anti-TREM-1. Soluble TREM-1 levels were measured by assessing the optical intensity of bands on immunodots by means of a reflectance scanner and the Quantity One Quantitation Software (Bio-Rad, Cergy, France) as reported elsewhere (18). […]

[3] = test system: C57BL/6 mice; assay: cecal ligation and puncture (CLP), survival of mice (Example 1); type: in vivo, mouse; details: 200 μl of 600 μM i.p. 5 and 24 hours after CLP; 5 days after CLP; 15 per group
Method: CLP was induced in C57BL/6 mice (15 per group) as described in Materials and Methods. P1 peptide (empty dots) or P3 peptide (filled squares) (200 μl of a 600 μM solution per mouse) were injected intraperitoneally 5 and 24 hours after CLP induction. Viability of mice was monitored twice a day for 10 days. Statistical analysis was performed with the Logrank test.
In order to investigate whether TREM-1 peptide treatment could be delayed until after the administration of LPS, the Inventors injected the peptides at 4 hours after LPS injection. […] 80% of the mice injected with P1 4 hours after LPS survived endotoxaemia compared to 60% of mice treated 1 h before LPS and 10% of mice treated with vehicle alone (p<0.001 and p<0.01 respectively). Thus, P1 is effective even when injected after the outbreak of endotoxaemia. […] P1 administration conferred maximal protection (80%) when administered at 600 μM (p<0.01) and the level of protection dropped to 50% at 300 μM (p<0.05) and further down to 30% at 150 μM as compared to 20% of control mice, indicating a dose dependent effect of P1 (FIG. 4). The Inventors then investigated whether P1 protects against septic shock in the “CLP” model (Cecal Ligation and Puncture is a widely used experimental model of sepsis). […]

## LQVTDSGLYRCVIYHPP [P5]
[1]; LPS 1 μg/mL
  effect of LPS on NF-κB activation: did not alter
[1]; anti-TREM-1 mAb 10 μg/mL
  NF-κB activation induced by the engagement of TREM-1: inhibited
[2]; LPS 1 μg/mL or LPS + anti-TREM-1 mAb
  TNF-α and IL-1β production (release of inflammatory cytokines) in monocyte supernatant: reduced, in a concentration-dependent manner
[2]; LPS 1 μg/mL
  release of sTREM-1 from monocytes cultured with LPS: increased

## LVVTQRPFTRPSEVHMGKFTLKH (listed as Mus musculus) [P1]
[3]
  mice surviving after CLP: 40%

— patent US10603357B2, “Therapeutic TREM-1 peptides” (Universite de Lorraine, priority 2004, dated 2020)
